Assay results taken from US12678438B2, “Treatment of cancer with CDK inhibitors” (THE TRUSTEES OF THE UNIVERSITY OF PENNSYLVANIA, priority 2019, dated 2026).

How the values were obtained:
Assay type in all cases: cell-based, human
p-MED1 (p-T1457 MED1) = assay: Immunoblot of p-MED1 in AR-positive PCa cell lines (VCaP, LNCaP, 22RV1); details: LNCaP
Description: Cell lysates were prepared with RIPA buffer (Boston Bioproducts, BP-115DG)-10 mM Tris-HCl pH 7.5, 1 mM EDTA, 400 mM NaCl, 0.5% NP-40 and 1 mM DTT, supplemented with protease inhibitor cocktail (Pierce, A32965) and phosphatase inhibitor (Thermo, 1861280). For immunoblotting 200 μg total protein extract was boiled in sample buffer and 15-25 μg aliquots were separated by SDS-PAGE and transferred onto Polyvinylidene Difluoride membrane (GE Healthcare, IPVH00010). The membrane was incubated for one hour in blocking buffer [Tris-buffered saline, 0.1% Tween (TBS-T), 5% nonfat dry milk followed by overnight incubation on a rocker at 4° C. with the primary antibody. Following a wash with TBS-T, the blot was incubated with horseradish peroxidase-conjugated secondary antibody for 2 hrs on a rocker at room temperature. The blots were washed again and signals were visualized using enhanced chemiluminescence system as per manufacturer's protocol (GE Healthcare) or Kwik Quant Imager (Kindle Biosciences). Primary antibodies used in the immunoblotting (IB), immunoprecipitation (IP), and Chromatin Immunoprecipitation sequencing (ChIP-seq) assays are as follows: AR_IP, IB, ChIP-Seq (Millipore, 06-680); pS81-AR_IB (Millipore, 07-1375-EMD); RNA Pol II_IP, IB (Abcam, ab5408); ERG_IB (Abcam, a92513); PSA_IB (Dako, A0562); H3-acetyl K27_IP, IB, ChIP Seq (Abcam, ab32104) cPARP_IB (Cell Signaling Technology, 9541s); Cleaved caspase-3_IB (Cell Signaling Technology, 9664t); CDK7_IP, IB (Cell Signaling Technology, 2916s); CDK9_IP, IB (Cell Signaling Technology, 2316s); CDK12_IB (Cell Signaling Technology, 11973S); CDK13_IB (Sigma Cat. #ABE1860); Cyclin H_IB (Cell Signaling Technology, 2927T); HA_IP, IB (Cell Signaling Technology, 2367s); ERK1/2_IP, IB (Cell Signaling Technology, 9107s); phospho-ERK1/2_IB (Cell Signaling Technology, 9101s); phospho-Threonine_IB (Cell Signaling Technology, 9381s); PP2A alpha_IB (Abcam, ab32104); phospho-MED1_IB (Abcam, ab60950); Anti-GST_IB (Cell Signaling Technology, 2624); Anti-AKT_IB (Cell Signaling Technology, 9272); Anti-phosphoAKT_IB(Cell Signaling Technology, 4060); Anti-phospho-AR (Ser-515) _IB (Abeam, ab128250); Anti-RNA Pol 'LIB (Abeam, ab5408); Anti-phospho-pol II (Ser-5)_IB (Abeam, ab ab5095); Anti-phospho-CDK7 (Tlu-170) _IB (Millipore, ABS567); MED1_IP, IB, ChIP Seq (Bethyl, abA300-793A), Ki67_IHC (Cell Signaling Technology, 9661), and GAPDH (14C10), IB (Cell Signaling Technology, 3683s) for loading control.

[1] = system: MED1 and AR recruitment to the chromatin; assay: ChIP-seq of genome-wide MED1 and AR binding; details: VCaP, 10 nM DHT plus 5 μM enzalutamide, 12 h
Description: ChIP was performed using iDeal ChIP-seq Kit for Transcription Factors (Diagenode, C01010170) according to manufacturer's protocol. In brief, the cells were crosslinked with 1% formaldehyde in culture medium for 10 min at room temperature. Cross-linking was terminated by the addition of 1/10 volume 1.25 M glycine for 5 min at room temperature followed by cell lysis and sonication (Bioruptor, Diagenode), resulting in an average chromatin fragment size of 200 bp. Chromatin equivalent to 5×10^6 cells was isolated and incubated with 10 μg antibody overnight at 4° C. (MED1, H3-acetyl K27, AR, and IgG (Diagenode). ChIP-seq libraries were prepared from the ChIP-enriched DNA samples using the TruSeq ChIP Library Preparation Kit (Illumina, IP-202-1012, IP-202-1024) and protocol. In brief, ChIP-enriched DNA (1-10 ng) was converted to blunt-ended fragments. A single A-base was added to fragment ends followed by ligation of Illumina adaptors. The adaptor-modified DNA fragments were enriched by PCR using the Illumina Barcode primers and Phusion DNA polymerase. PCR products were size selected using 3% NuSieve agarose gels (Lonza) followed by gel extraction using QIAEX II reagents (QIAGEN). Libraries were quantified with the Bioanalyzer 2100 (Agilent) and sequenced on the Illumina NextSeq 500 Sequencer (75 nucleotide read length).
Sequencing reads were quality checked with FASTQC (www.bioinformatics.babraham.ac.uk/projects/fastqc) and aligned to the GRCh37 (release 27) genome using the STAR v2.5.1 aligner with default settings. PCR duplicate reads in the aligned bam files were removed using samtools, bam files were converted to CPM normalized bigwig tracks using deeptools, and viewed using the Integrated Genomics Viewer or the UCSC genome browser. Single end reads were extended up to the fragment length (200 bp) along the read direction.
The enrichment peaks for the various transcription factors and histone marks were computed using MACS2, with default settings. Regions found to ubiquitously enriched across a number of next-generation sequencing experiments, also known as the blacklisted peaks (sites.google.com/site/anshulkundaje/projects/blacklists), were excluded in all subsequent analysis.

AR target genes = assay: qRT-PCR of DHT-induced AR target gene expression; details: LNCaP and VCaP, 10 μM enzalutamide
Description: For AR signaling stimulation experiments, cells were plated in complete media at required confluency. After 24 h cells were washed with DPBS and cultured in RPMI/DMEM without Phenol Red (Invitrogen, 11835030) and 10% charcoal-dextran stripped FBS (Gemini BioProducts, 100-119) for 72 h. Cells were then stimulated with 10 nM DHT for the specific time points.
Total RNA was isolated from cells using miRNeasy Mini Kit (Qiagen, 74106) and cDNA was synthesized from 1 μg total RNA using SuperScriptIV (Life Technologies, 18090200). qRT-PCR was performed using Fast SYBR Master Mix (Life Technologies, 4385617) or Taqman Fast Advance MMIX (Life Technologies, 4444964), and analyzed on QuantStudio3 (Applied Biosystems, USA). The target mRNA expression was quantified using ΔΔCt method, as normalized to GAPDH transcript levels. Primers were designed using Primer3 Input (version 0.4.0) (bioinfo.ut.ee/primer3-0.4.0/primer3) and synthesized by Integrated DNA Technologies.

[2] = system: chromatin-bound p-MED1/MED1; assay: Chromatin-bound protein extraction and immunoblot; details: DHT-stimulated LNCaP, 6 h; THZ1 100 nM, enzalutamide 5 μM
Description: Chromatin bound protein extraction was performed following the protocol described in Pawar et al. Briefly, 10 million cells were collected and washed with DPBS, and were resuspended in 250 μl Buffer A (10 mM HEPES pH 7.9, 10 mM KCl, 1.5 mM MgCl2, 0.34 M sucrose, 10% glycerol, 1 mM DTT) supplemented with 0.1% TritonX-100 and incubated on ice for 10 min. The nuclei pellet was collected by centrifugation at 1300×g for 5 min at 4° C., washed in Buffer A and centrifuged again with the same settings. The nuclear pellet was then resuspended in Buffer B (3 mM EDTA, 0.2 mM EGTA, 1 mM DTT) and incubated on ice for 30 min. The chromatin pellet was collected by centrifugation at 1700×g for 5 min at 4° C., washed in Buffer B and centrifuged again with the same settings. The proteins were incubated on ice in Buffer B with 150 mM NaCl for 20 min and centrifuged at 1700×g for 5 min to remove proteins soluble in 150 mM salt concentrations. The pellet was then incubated in Buffer B with 300 mM NaCl on ice for 20 min and centrifuged again at 1700×g to obtain the final chromatin pellet. The chromatin pellet was dissolved in sample buffer, sonicated for 15 seconds, and boiled at 95° C. for 10 min. Samples were analyzed using Immunoblot analysis as described previously. All buffers were supplemented with Pierce protease inhibitor and Halt protease & phosphatase inhibitors.

With `COc1ccccc1-c1cc(Nc2cccc(CS(N)(=O)=O)c2)ncn1` [LDC] as the molecule, how does the p-MED1 levels (p-MED1 (p-T1457 MED1); VCaP, 22RV1, standard culture conditions, 24 h (THZ1 and LDC also with DHT stimulation)) read?
The p-MED1 levels was “no such effect on p-MED1 levels”.

With `CN(C)CCCC(=O)Nc1ccc(C(=O)Nc2cccc(Nc3ncc(Cl)c(-c4c[nH]c5ccccc45)n3)c2)cc1` [THZ1-R] as the molecule, how does the MED1 phosphorylation (p-MED1 (p-T1457 MED1); 100 nM, 12 h) read?
The MED1 phosphorylation was “does not affect MEDI phosphorylation”.

With `CNC(=O)c1ccc(N2C(=S)N(c3ccc(C#N)c(C(F)(F)F)c3)C(=O)C2(C)C)cc1F` [enzalutamide] as the molecule, how does the “MED1 chromatin association (ChIP-seq)” value [1] read?
The value was “completely abolished”.

And the “average ChIP-seq signal for AR” value [1]?
The value was “significantly reversed”.

What about the “DHT-induced AR target gene expression” value (AR target genes) of the same molecule?
The value was “AR target reversal”.

What about the “chromatin-bound levels of p-MED1/MED1” value [2] of the same molecule?
Its value is “unable to completely dissociate p-MED1 from the chromatin”.
